# Values quoted from earlier work in patent publication US6353019B1, “Macrocyclic lactones, compositions, and methods of use” (United States of America as represented by the Department …, priority 1997, dated 2002).
# Conditions: reported by Suzumure et al., Tetrahedron Lett. 1997; cited from earlier work
substance,measurement,value
lobatamide A,antifungal activity,weak antifungal activity
